# Source: article PMC7937321 (Genes and Environment, 2021)
# Read-outs that look alike come from different tables or passages of the source.
# Columns and labels:
# [1] = tested on: TA1538, TA100, TA98, TA97, TA1535; details: cited from earlier work; for Bacterial reverse mutation assay, With S9 / Bacterial reverse mutation assay, Without S9: ref [18]-[40], Table 2
# rodent [2] = details: cited from earlier work
# [3] = tested on: human lymphoblastoid TK6 cells, thymidine kinase gene; assay: TK gene mutation assay (TK6 assay, OECD TG490); details: for TK6 assay overall judgment: all treatments; for TK mutation assay, With S9 / TK mutation assay, Without S9: short-term 4 h; for TK mutation assay, With S9: with rat liver S9
# Method: (§1) In principle, this collaborative study conducted the treatment of test substances, the dose finding, and the main test of TK6 assays, according to the OECD Guideline TG490 [17]. […] Briefly, test substances were dissolved in an appropriate solvent (DMSO or ethanol) and then serially diluted to prepare final concentrations. […] The 4 h and 24 h treatments were conducted by shaking and static exposures, respectively. After treatment with test substances, cells were centrifuged (1000 rpm, 5 min), supernatants were removed, and cells were washed with a serum-free medium or Hank’s Balanced Salt Solution. After centrifugation (1000 rpm, 5 min) to remove the supernatant, cells (2 × 10^7 cells) were dispersed in an RPMI medium containing 10% serum, and cell concentration was measured. Treated cells were cultured at 37 °C with 5% CO2 condition and used for TK6 assays. At that time, to calculate the cloning efficiency (CE) (Eq. 1), the cells were cultured in a 96-well microplate at a concentration of about 1.6 cells/well for 2 weeks.
# (§2) The TK6 assay is conducted between 20 and 10% RS0 as a maximum dose if cytotoxicity is observed. If no precipitate or limiting cytotoxicity was observed, the maximum dose was the lowest concentration among 10 mM, 2 mg/mL, or 2 μL/mL of the test substance. When the main TK6 assay was difficult to conduct under the condition of RS0 values from 20 to 10%, the test was conducted between 20 and 10% relative total growth (RTG), described later, as a maximum dose.
# (§3) On the third day of culture, CE3 plates for determining plating efficiency and mutant frequency (MF) plates for mutation detection were prepared. CE3 plates were seeded in 96-well microplates at a concentration of about 1.6 cells/well. The MF plates were seeded in 96-well microplates at 40,000 cells/well in the presence of 3 μg/mL of trifluorothymidine (Sigma Aldrich).
# (§4) Mutant colonies in MF plates were calculated using Eq. 7 using the Poisson distribution. EW was the number of wells without colonies, and TW was the total number of wells. N was the average number of cells per well (N = 40,000 in this study). The data were statistically analyzed by Omori’s method, a modified Dunnett’s procedure for identifying clear negatives, a Simpson–Margolin procedure for detecting downturn data, and a trend test to evaluate the dose dependency [42, 43]. The acceptability criterion for the test was that the MF value of the positive control group of each laboratory was increased with statistical significance compared with that of the concurrent negative control group.
# rodent [4] = details: cited from earlier work; for Carcinogenicity Studies: rodent, ref [20]-[41], Table 2
# livers of rats = details: ref [74]; cited from earlier work
# [5] = tested on: L5178Y mouse lymphoma cells; parameters: key to MLA (TK gene locus), Without S9 / MLA (TK gene locus), With S9: Positive; Negative; details: cited from earlier work
# TK6 cells [6] = assay: Cytotoxicity in the TK6 assay (CE, RS, RSG, RTG)
# Method: (§5) Briefly, test substances were dissolved in an appropriate solvent (DMSO or ethanol) and then serially diluted to prepare final concentrations. […] The 4 h and 24 h treatments were conducted by shaking and static exposures, respectively. After treatment with test substances, cells were centrifuged (1000 rpm, 5 min), supernatants were removed, and cells were washed with a serum-free medium or Hank’s Balanced Salt Solution. After centrifugation (1000 rpm, 5 min) to remove the supernatant, cells (2 × 10^7 cells) were dispersed in an RPMI medium containing 10% serum, and cell concentration was measured. Treated cells were cultured at 37 °C with 5% CO2 condition and used for TK6 assays. At that time, to calculate the cloning efficiency (CE) (Eq. 1), the cells were cultured in a 96-well microplate at a concentration of about 1.6 cells/well for 2 weeks.
# (§6) CE, the cell colony formation rate, was calculated using Eq. 1 according to the Poisson distribution equation. EW was the number of wells without colonies, and TW was the total number of wells. N was the average number of cells per well (N = 1.6). 1 CE=−lnEW/TW/N
# (§7) Additionally, CE was adjusted by the following calculation (Eq. 2) due to cell loss when exposure caused cytotoxicity. “The number of cells at the end of the treatment” was the number of cells obtained after centrifugation at the end of the treatment in the above-described exposure treatment of the test substance. The “cell number at the start of treatment” was 2 × 10^7. 2 AdjustedCE=CE×number of cellsatendof treatment/number of cellsatthe start of treatment
# (§8) CE0 seeding, in which cells were seeded immediately after treatment, and CE3 seeding, in which cells were seeded 3 days after treatment, to examine cell viability in the TK6 assay described below. The relative cell viability RS0 (%) just after the treatment with the test substance was calculated from CE0, following Eq. 3. The survival rate of the negative control group was defined as 100%. 3 RS0%=adjusted CE0 of treatment culture/adjusted CE0 of solvent control×100
# (§9) The TK6 assay is conducted between 20 and 10% RS0 as a maximum dose if cytotoxicity is observed. […] When the main TK6 assay was difficult to conduct under the condition of RS0 values from 20 to 10%, the test was conducted between 20 and 10% relative total growth (RTG), described later, as a maximum dose.
# (§10) Besides RS0, relative suspension growth (RSG) and RTG as other cytotoxicity indices (Eq. 4) were used. When cells were cultured for 3 days after treatment with the test substance, suspension cell growth ratio 1 (SG1) was the growth ratio from day 0 to day 1 (cell concentration on day 1/cell concentration on day 0). The suspension cell growth ratio 2 (SG2) was the growth ratio from day 1 to day 2 (cell concentration on day 2/cell concentration on day 1). The RSG value was calculated by dividing the total SG value of the untreated group for 3 days by the total SG value of the treated group for the same 3 days (Eq. 4).
# (§11) On the third day of culture, CE3 plates for determining plating efficiency and mutant frequency (MF) plates for mutation detection were prepared. CE3 plates were seeded in 96-well microplates at a concentration of about 1.6 cells/well.
# [7] = tested on: human lymphoblastoid TK6 cells, thymidine kinase gene
# Method: as §1, §2, §3, §4
# mammalian cells = tested on: mammalian cells; parameters: method as in PMID 32152633; details: ref [10], [11]; cited from earlier work
# [8] = tested on: 3-D reconstituted human skin cells; parameters: method as in PMID 32152633; details: ref [10], [11]; cited from earlier work
# in vitro = details: human
# Method: as §5, §6, §7, §8, §9, §10, §11
# TK6 cells [9] = details: human
# Method: as §5, §6, §7, §8, §9, §10, §11
# [10] = tested on: human lymphoblastoid TK6 cells, thymidine kinase gene; parameters: method as in PMID 2184322; details: 96 h of exposure, absence of S9; ref [67]; cited from earlier work
# human lymphocytes = tested on: human lymphocytes; parameters: method as in PMID 22539226; details: in vitro; ref [6]; cited from earlier work
# rats = details: ref [6]; cited from earlier work
# mice = tested on: mice; parameters: method as in PMID 22539226; details: ref [6]; cited from earlier work
# [11] = chromosomal Aberration test, micronucleus test, transgenic rodent gene mutation assay, ref [48], [58]–[63]
# [12] = Short-term treatment with metabolic activation
# [13] = Short-term treatment without metabolic activation
smiles,measurement,setting,value
O=[N+]([O-])c1cccc2ccccc12 [1-Nitronaphthalene],The Highest Specific Activity and the Strain,"[1]; TA100 with S9, ref Table 2","12,500 revertants/mg"
same,The Highest Specific Activity and the Strain,"[1]; TA100 without S9, ref Table 2","14,700 revertants/mg"
same,specific activity values obtained from Ames test,[1]; ref Table 2,"exceeding 10,000 revertants per milligram"
same,"Bacterial reverse mutation assay, With S9",[1],Pos
same,"Bacterial reverse mutation assay, Without S9",[1],Pos
same,in vivo genotoxicity tests,rodent [2]; [11],negative
same,"TK6 assay result (mutant frequency increase, judgment)",[3]; 4h treatment (+S9),significant increase in MF
same,"TK6 assay result (mutant frequency increase, judgment)",[3]; 4h treatment (-S9),significant increase in MF
same,TK6 assay overall judgment,[3],positive
same,"TK mutation assay, With S9",[3],Pos
same,"TK mutation assay, Without S9",[3],Pos
same,Carcinogenicity Studies,rodent [4],Neg
"Cc1ccc(N)cc1N [2,4-Diaminotoluene, reference compound]",carcinogenicity,"rodent [4]; report of the National Toxicology Program, ref [24]",carcinogenic
same,DNA adducts in the livers of rats,livers of rats,Significant DNA adducts were detected
Cl.ClCc1ccccn1 [2-(Chloromethyl) pyridine HCl],The Highest Specific Activity and the Strain,"[1]; TA100 with S9, ref Table 2",98.6 revertants/mg in TA100 with S9
same,"Bacterial reverse mutation assay, With S9",[1],Pos
same,"Bacterial reverse mutation assay, Without S9",[1],Pos
same,in vivo genotoxicity tests,rodent [2]; in vivo,negative
same,"TK6 assay result (mutant frequency increase, judgment)",[3]; 4h treatment (+S9),clear concentration-dependent increase of MF
same,"TK6 assay result (mutant frequency increase, judgment)",[3]; 4h treatment (-S9),clear concentration-dependent increase of MF
same,"Dunnett type test, test statistic",[3]; [12],5.868
same,"Trend test, test statistic",[3]; [12],3.912
same,"Dunnett type test, test statistic",[3]; [13],5.268
same,"Trend test, test statistic",[3]; [13],3.417
same,TK6 assay overall judgment,[3],positive
same,"TK mutation assay, With S9",[3],Pos
same,"TK mutation assay, Without S9",[3],Pos
same,"MLA (TK gene locus), With S9","[5]; with S9, ref [27], [46]-[53], Table 3",Pos
same,"MLA (TK gene locus), Without S9","[5]; ref [27], [46]-[53], Table 3",Pos
same,cytotoxicity (relative colony efficiency),"TK6 cells [6]; 60 μg/mL, absence of S9, short-term",About 80%
same,cytotoxicity (relative colony efficiency),"TK6 cells [6]; 100 μg/mL, presence of S9, short-term",About 80%
same,Carcinogenicity Studies,rodent [4],Neg
"CC(=O)Nc1ccc(C(=O)CCl)cc1 [4-(Chloroacetyl)-acetanilide, 4-(Chloroacetyl)acetanilide]",The Highest Specific Activity and the Strain,"[1]; TA1538 with S9, ref [18], [19]",600 revertants/mg in TA1538 with S9
same,"Bacterial reverse mutation assay, With S9",[1],Pos
same,"Bacterial reverse mutation assay, Without S9",[1],Neg
same,in vivo genotoxicity tests,rodent [2]; [11],negative
same,TK6 assay overall judgment,[7],positive
same,"TK mutation assay, Long term",[7],Pos
same,"TK mutation assay, With S9",[7],Neg
same,"TK mutation assay, Without S9",[7],Pos
same,linear trend test of MF,[7],no statistically significant linear trends
same,Carcinogenicity Studies,rodent [4],Neg
Oc1cccc2cccnc12 [8-Hydroxyquinoline],The Highest Specific Activity and the Strain,"[1]; TA97 with S9, ref [28]","21,400 revertants/mg"
same,The Highest Specific Activity and the Strain,"[1]; TA100 with S9, ref Table 2","16,000 revertants/mg"
same,specific activity values obtained from Ames test,[1]; ref Table 2,"exceeding 10,000 revertants per milligram"
same,"Bacterial reverse mutation assay, With S9",[1],Pos
same,"Bacterial reverse mutation assay, Without S9",[1],Neg
same,in vivo genotoxicity tests,rodent [2]; [11],negative
same,"TK mutation assay, With S9",[7],Pos
same,"TK mutation assay, Without S9",[7],Neg
same,"Trend test, test statistic",[7]; human,4.896 / 1.645 / p < 0.05
same,"MLA (TK gene locus), Without S9","[5]; ref [27], [46]-[53], Table 3",Pos
same,Carcinogenicity Studies,rodent [4],Neg
C[N+](C)(C)c1ccc2ccc(O)c(N=Nc3ccc(N)c([N+](=O)[O-])c3)c2c1.[Cl-] [Basic Brown 17],Ames test,"[1]; ref [10], [11]",positive
same,in vitro micronucleus test using mammalian cells,mammalian cells,negative
same,mutation assays using mouse lymphoma,"[5]; two loci of TK and HPRT, ref [10], [11]",negative
same,comet assay with 3-D reconstituted human skin cells,[8],negative
"COS(C)(=O)=O [MMS, methyl methanesulfonate]",Mut. freq. T-MF (MF),"[7]; human, 4 h, 3 μg/mL",23.9 ×10-6
same,MF,"[7]; human, 4 h, 5 μg/mL",71.7
same,Mut. freq. N-MF,"[7]; human, 4 h, 5 μg/mL",29.3 ×10-6
same,Mut. freq. S-MF,"[7]; human, 4 h, 5 μg/mL",42.3 ×10-6
same,Mut. freq. T-MF,"[7]; human, 4 h, 5 μg/mL",71.7 ×10-6
same,%SG,"[7]; human, 24 h, 1 μg/mL",59.3%
same,Mut. freq. (×10-6) N-MF,"[7]; human, 24 h, 1 μg/mL",14.0 ×10-6
same,Mut. freq. (×10-6) S-MF,"[7]; human, 24 h, 1 μg/mL",20.5 ×10-6
same,Mut. freq. (×10-6) T-MF,"[7]; human, 24 h, 1 μg/mL",34.5 ×10-6
same,MF,"[7]; human, 24 h, 2 μg/mL",86.4
same,Mut. freq. (×10-6) N-MF,"[7]; human, 24 h, 2 μg/mL",25.3 ×10-6
same,Mut. freq. (×10-6) S-MF,"[7]; human, 24 h, 2 μg/mL",39.7 ×10-6
same,Mut. freq. (×10-6) T-MF,"[7]; human, 24 h, 2 μg/mL",65.0 ×10-6
same,Mut. freq. N-MF,"[7]; human, 24 h, 2 μg/mL",51.4 ×10-6
same,Mut. freq. S-MF,"[7]; human, 24 h, 2 μg/mL",34.9 ×10-6
same,Mut. freq. T-MF,"[7]; human, 24 h, 2 μg/mL",86.4 ×10-6
same,"viability at 4 h, 3 μg/mL","in vitro; CE0 (%), cell viability on Day 0",27.3%
same,"viability at 4 h, 3 μg/mL","in vitro; CE3 (%), cell viability on Day 3",70.6%
same,CE0 (%),"TK6 cells [9]; 4 h, 3 μg/mL",48.8%
same,"CE0 (%), cell viability on Day 0","TK6 cells [9]; 4 h, 3 μg/mL",38.3%
same,CE3 (%),"TK6 cells [9]; 4 h, 3 μg/mL",56.3%
same,"CE3 (%), cell viability on Day 3","TK6 cells [9]; 4 h, 3 μg/mL",54.7%
same,Daily cell growth Day 1×2×3,"TK6 cells [9]; 4 h, 3 μg/mL",8.36
same,Adjusted CE0,"TK6 cells [9]; 4 h, 5 μg/mL",30.4%
same,CE0,"TK6 cells [9]; 4 h, 5 μg/mL",32.6%
same,Daily cell growth Day 1×2×3,"TK6 cells [9]; 4 h, 5 μg/mL",7.40
same,RS,"TK6 cells [9]; 4 h, 5 μg/mL",35.0
same,RS0,"TK6 cells [9]; 4 h, 5 μg/mL",35.0%
same,RSG,"TK6 cells [9]; 4 h, 5 μg/mL",0.357
same,Adjusted CE0(%),"TK6 cells [9]; 24 h, 1 μg/mL",133.2%
same,CE0 (%),"TK6 cells [9]; 24 h, 1 μg/mL",63.1%
same,CE3,"TK6 cells [9]; 24 h, 1 μg/mL",0.866
same,CE3 (%),"TK6 cells [9]; 24 h, 1 μg/mL",86.6%
same,Daily cell growth Day 1×2×3,"TK6 cells [9]; 24 h, 1 μg/mL",15.58
same,RS0 (%),"TK6 cells [9]; 24 h, 1 μg/mL",59.4%
same,RSG,"TK6 cells [9]; 24 h, 1 μg/mL",0.886
same,Adjusted CE0,"TK6 cells [9]; 24 h, 2 μg/mL",8.3%
same,Adjusted CE0(%),"TK6 cells [9]; 24 h, 2 μg/mL",42.0%
same,CE0,"TK6 cells [9]; 24 h, 2 μg/mL",14.6%
same,CE0 (%),"TK6 cells [9]; 24 h, 2 μg/mL",21.6%
same,CE3 (%),"TK6 cells [9]; 24 h, 2 μg/mL",81.6%
same,RS,"TK6 cells [9]; 24 h, 2 μg/mL",12.2
same,RS0,"TK6 cells [9]; 24 h, 2 μg/mL",12.2%
same,RS0 (%),"TK6 cells [9]; 24 h, 2 μg/mL",18.7%
Nc1ccc(-c2ccc(N)cc2)cc1 [benzidine],Mutagenicity in human TK6 cells,[10],Mutagenicity was confirmed
"CSc1ccc(OCc2ncc([N+](=O)[O-])n2C)cc1 [fexinidazole, reference compound]",micronucleus test in human lymphocytes,human lymphocytes,negative
same,Ames test,[1]; ref [6],positive
same,ex vivo unscheduled DNA synthesis in rats,rats,negative
same,bone marrow micronucleus test in mice,mice,negative
